Source: the supplement of paper PMC10733146

What was measured:
Assay in all cases: viability relative to DMSO control (fraction); higher = less drug effect (more viable cells)
Settings in all cases: 48 h
[1] = tested on: primary ALL patient cells (S048)
How it was run: (§1)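 Primary mononuclear tumour cells (Ficoll-isolated from blood or bone marrow, or processed lymph node; fresh or cryopreserved) were plated at 4 × 10^4 cells per well in 384-well plates with pre-plated compounds at five concentrations, one well each. Medium was RPMI-1640 with penicillin/streptomycin, L-glutamine and human serum, at 37 °C and 5% CO2 for 48 h. Viability was read as CellTiter-Glo luminescence relative to the median of 16 inner DMSO wells.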

[2] = tested on: primary ALL patient cells (S088)
How it was run: as §1

[3] = tested on: primary AML patient cells (S002)
How it was run: as §1

[4] = tested on: primary AML patient cells (S009)
How it was run: as §1

[5] = tested on: primary AML patient cells (S017)
How it was run: as §1

[6] = tested on: primary AML patient cells (S019)
How it was run: as §1

[7] = tested on: primary AML patient cells (S021)
How it was run: as §1

[8] = tested on: primary AML patient cells (S025)
How it was run: as §1

[9] = tested on: primary AML patient cells (S055)
How it was run: as §1

[10] = tested on: primary AML patient cells (S060)
How it was run: as §1

[11] = tested on: primary AML patient cells (S071)
How it was run: as §1

[12] = tested on: primary AML patient cells (S072)
How it was run: as §1

[13] = tested on: primary AML patient cells (S079)
How it was run: as §1

[14] = tested on: primary AML patient cells (S089)
How it was run: as §1

[15] = tested on: primary AML patient cells (S091)
How it was run: as §1

[16] = tested on: primary B-PLL patient cells (S016)
How it was run: as §1

[17] = tested on: primary DLBCL patient cells (S082)
How it was run: as §1

[18] = tested on: primary FL patient cells (S022)
How it was run: as §1

[19] = tested on: primary FL patient cells (S087)
How it was run: as §1

[20] = tested on: primary MCL patient cells (S053)
How it was run: as §1

COc1cccc2c1C(=O)c1c(O)c3c(c(O)c1C2=O)C[C@@](O)(C(=O)CO)C[C@@H]3O[C@H]1C[C@H](N)[C@H](O)[C@H](C)O1 [Doxorubicin]
viability ([1]; 0.0016 µM): 1.06
viability ([1]; 0.008 µM): 1.01
viability ([1]; 0.04 µM): 0.418
viability ([1]; 0.2 µM): 0.0592
viability ([1]; 1 µM): 0.0152
viability ([2]; 0.0016 µM): 1.05
viability ([2]; 0.008 µM): 1.02
viability ([2]; 0.04 µM): 0.828
viability ([2]; 0.2 µM): 0.221
viability ([2]; 1 µM): 0.0329
viability ([3]; 0.0016 µM): 1.06
viability ([3]; 0.008 µM): 1.08
viability ([3]; 0.04 µM): 0.695
viability ([3]; 0.2 µM): 0.401
viability ([3]; 1 µM): 0.33
viability ([4]; 0.0016 µM): 1.07
viability ([4]; 0.008 µM): 0.994
viability ([4]; 0.04 µM): 0.934
viability ([4]; 0.2 µM): 0.644
viability ([4]; 1 µM): 0.221
viability ([5]; 0.0016 µM): 1.2
viability ([5]; 0.008 µM): 1.1
viability ([5]; 0.04 µM): 1.07
viability ([5]; 0.2 µM): 0.96
viability ([5]; 1 µM): 0.146
viability ([6]; 0.0016 µM): 1.02
viability ([6]; 0.008 µM): 1.06
viability ([6]; 0.04 µM): 0.828
viability ([6]; 0.2 µM): 0.481
viability ([6]; 1 µM): 0.219
viability ([7]; 0.0016 µM): 0.994
viability ([7]; 0.008 µM): 1.01
viability ([7]; 0.04 µM): 0.929
viability ([7]; 0.2 µM): 0.438
viability ([7]; 1 µM): 0.182
viability ([8]; 0.0016 µM): 0.99
viability ([8]; 0.008 µM): 1.01
viability ([8]; 0.04 µM): 0.848
viability ([8]; 0.2 µM): 0.501
viability ([8]; 1 µM): 0.119
viability ([9]; 0.0016 µM): 1.02
viability ([9]; 0.008 µM): 0.99
viability ([9]; 0.04 µM): 1.02
viability ([9]; 0.2 µM): 0.947
viability ([9]; 1 µM): 0.487
viability ([10]; 0.0016 µM): 1.03
viability ([10]; 0.008 µM): 1.05
viability ([10]; 0.04 µM): 1.04
viability ([10]; 0.2 µM): 1.16
viability ([10]; 1 µM): 0.124
viability ([11]; 0.0016 µM): 0.978
viability ([11]; 0.008 µM): 0.745
viability ([11]; 0.04 µM): 0.27
viability ([11]; 0.2 µM): 0.116
viability ([11]; 1 µM): 0.0761
viability ([12]; 0.0016 µM): 1.05
viability ([12]; 0.008 µM): 1.01
viability ([12]; 0.04 µM): 0.947
viability ([12]; 0.2 µM): 0.704
viability ([12]; 1 µM): 0.162
viability ([13]; 0.0016 µM): 1.05
viability ([13]; 0.008 µM): 1.1
viability ([13]; 0.04 µM): 1.03
viability ([13]; 0.2 µM): 0.769
viability ([13]; 1 µM): 0.244
viability ([14]; 0.0016 µM): 1.01
viability ([14]; 0.008 µM): 1
viability ([14]; 0.04 µM): 1.01
viability ([14]; 0.2 µM): 0.665
viability ([14]; 1 µM): 0.187
viability ([15]; 0.0016 µM): 0.983
viability ([15]; 0.008 µM): 0.905
viability ([15]; 0.04 µM): 0.737
viability ([15]; 0.2 µM): 0.637
viability ([15]; 1 µM): 0.499
viability ([16]; 0.0016 µM): 1.09
viability ([16]; 0.008 µM): 0.847
viability ([16]; 0.04 µM): 0.175
viability ([16]; 0.2 µM): 0.0427
viability ([16]; 1 µM): 0.0239
viability ([17]; 0.0016 µM): 1.11
viability ([17]; 0.008 µM): 1.1
viability ([17]; 0.04 µM): 0.945
viability ([17]; 0.2 µM): 0.878
viability ([17]; 1 µM): 0.0843
viability ([18]; 0.0016 µM): 1.12
viability ([18]; 0.008 µM): 1.17
viability ([18]; 0.04 µM): 0.892
viability ([18]; 0.2 µM): 0.281
viability ([18]; 1 µM): 0.183
viability ([19]; 0.0016 µM): 1.04
viability ([19]; 0.008 µM): 1.03
viability ([19]; 0.04 µM): 0.98
viability ([19]; 0.2 µM): 0.776
viability ([19]; 1 µM): 0.584
viability ([20]; 0.0016 µM): 0.959
viability ([20]; 0.008 µM): 0.756
viability ([20]; 0.04 µM): 0.448
viability ([20]; 0.2 µM): 0.216
viability ([20]; 1 µM): 0.299
